Results on eight molecules are retold here after publication PMC6299216, “Gain-of-Function Mutations in the Phospholipid Flippase MprF Confer Specific Daptomycin Resistance” (mBio, 2018).

Test [1] has as its system S. aureus 113 (SA113) mprF mutant expressing T345A-MprF (pRB-T345A). Format: cell-based, Staphylococcus aureus. Conditions: T345A mutation in MprF on plasmid in SA113 mprF mutant; MIC test strips; 50 mg/liter CaCl2; mean of at least five independent experiments (Fig. 1B). The text has this:
(§1) The common laboratory strain, methicillin-susceptible S. aureus SA113 (ATCC 35556) and its mprF knockout derivative SA113ΔmprF have been described recently ([17]). Point mutations in mprF were introduced by site-directed mutagenesis in Escherichia coli using E. coli/S. aureus shuttle vector pRB474 bearing mprF via the use of a QuikChange kit (Stratagene, La Jolla, CA, USA) (see Table S3 in the supplemental material), as described recently ([20]). Mutated derivatives of mprF were cloned in pRB474mprF and transferred into strain SA113ΔmprF. Expression of the pRB474mprF variants was mediated by the use of constitutive Bacillus subtilis promoter vegII. Plasmids were maintained with 10 μg/ml chloramphenicol in all studies, with the exception of the MIC assays.
(§2) The MICs of daptomycin, bacitracin, polymyxin B, vancomycin, and oxacillin were determined with MIC test strips from Liofilchem according to the manufacturer’s advice. The MICs of friulimicin B, nisin, and gallidermin were determined by broth microdilution in Mueller-Hinton broth (MHB) in a 24-well plate under shaking conditions. Friulimicin B and daptomycin MICs were determined in the presence of 50 mg/liter CaCl2. Other MICs were determined in the presence of 50 mg/liter CaCl2 when indicated.

The test system of test [2] is S. aureus 113 (SA113) mprF mutant expressing V351E-MprF (pRB-V351E). Format: cell-based, Staphylococcus aureus. Conditions: V351E mutation in MprF on plasmid in SA113 mprF mutant; MIC test strips; 50 mg/liter CaCl2; mean of at least five independent experiments (Fig. 1B).
Description: as §1, §2

Test [3] concerns S. aureus 113 (SA113) mprF mutant expressing parental (wild-type) MprF (pRBmprF). The class given is cell-based, Staphylococcus aureus. Conditions: parental MprF sequence on plasmid in SA113 mprF mutant; MIC test strips; 50 mg/liter CaCl2; mean of at least five independent experiments (Fig. 1B).
Description: as §1, §2

Test [4] deals with S. aureus 113 (SA113) mprF mutant expressing MprF with S295L, P314L, S337L, I420N or L826F. In words: MIC, MIC test strips (Liofilchem). Format: cell-based, Staphylococcus aureus. Conditions: mutations S295L, I420N and L826F, 50 mg/liter CaCl2 (Fig. 1B).
Description: as §1, §2

Test [5] relates to S. aureus ΔmprF mutant with or without functional MprF. The experiment in a line: MIC, MIC test strips: mprF deletion mutant versus functional MprF. The following applies: daptomycin with 50 mg/liter CaCl2, three independent experiments (Fig. 4A). Format: cell-based, Staphylococcus aureus.
Description: as §1, §2

Test [6] relates to S. aureus ΔmprF mutant expressing D71A-T345A MprF (pRB-D71A-T345A). In words: MIC, MIC test strips, flippase-inactivated MprF. The class given is cell-based, Staphylococcus aureus.
Description: as §1, §2

Test [7] concerns S. aureus ΔmprF mutant expressing E206A-T345A MprF (pRB-E206A-T345A). The experiment in a line: MIC, MIC test strips, flippase-inactivated MprF. Format: cell-based, Staphylococcus aureus.
Description: as §1, §2

The test system of test [8] is S. aureus ΔmprF mutant expressing R112A-T345A MprF (pRB-R112A-T345A). The experiment in a line: MIC, MIC test strips, flippase-inactivated MprF. Format: cell-based, Staphylococcus aureus.
Description: as §1, §2

Test [9] has as its system S. aureus with chromosomal deletion of MprF. The following applies: cited from earlier work. The text has this:
Daptomycin is the first approved drug of a new class of calcium-dependent lipopeptide antibiotics, whose entire mode of action is still not fully understood ([6], [8]). It interacts with phosphatidylglycerol (PG) and interferes with bacterial fluid membrane microdomains, which leads to inhibition of cell wall synthesis ([9]). However, it is unclear if its activity requires a specific docking molecule in the membrane ([9], [10]). How point mutations in different S. aureus proteins contribute to or cause DAP-R remains equally elusive ([6]). Several proteins involved in the synthesis, regulation, ...

For test [10], the system named is S. aureus ΔmprF mutant with or without functional MprF. In words: MIC, broth microdilution: mprF deletion mutant versus functional MprF. The class given is cell-based, Staphylococcus aureus. The following applies: broth microdilution in Mueller-Hinton broth, 24-well plate, shaking; friulimicin B with 50 mg/liter CaCl2; three independent experiments (Fig. 4A).
Description: as §1, §2

Test [11] deals with S. aureus ΔmprF mutant expressing T345A-MprF. The experiment in a line: MIC, broth microdilution. Format: cell-based, Staphylococcus aureus. The following applies: T345A mutation; broth microdilution in MHB; 50 mg/liter CaCl2; three independent experiments (Fig. 4A).
Description: as §1, §2
On the technique in general: In broth dilution the organism is exposed to a series of concentrations in liquid medium.

The subject of test [12] is S. aureus ΔmprF mutant expressing V351E-MprF. The experiment in a line: MIC, broth microdilution. Conditions: V351E mutation; broth microdilution in MHB; 50 mg/liter CaCl2; three independent experiments (Fig. 4A). The class given is cell-based, Staphylococcus aureus.
Description: as §1, §2

≈ marks a conversion by molar mass, not a printed value. Ends that are not written are not given here.

For the molecule `CCCCCCCCCC(=O)N[C@@H](Cc1c[nH]c2ccccc12)C(=O)N[C@H](CC(N)=O)C(=O)N[C@@H](CC(=O)O)C(=O)N[C@@H]1C(=O)NCC(=O)N[C@@H](CCCN)C(=O)N[C@@H](CC(=O)O)C(=O)N[C@H](C)C(=O)N[C@@H](CC(=O)O)C(=O)NCC(=O)N[C@H](CO)C(=O)N[C@@H]([C@H](C)CC(=O)O)C(=O)N[C@@H](CC(=O)c2ccccc2N)C(=O)O[C@@H]1C` [daptomycin], the MIC in [1] worked out at 3 µg/mL (≈ 1.85 µM); in [2], 3 µg/mL (≈ 1.85 µM); in test [3] it was 1 µg/mL (≈ 0.617 µM). In addition, in [4], the “daptomycin susceptibility compared to the parental MprF sequence” value is “did not alter daptomycin susceptibility”. For the same molecule, the “ability to inhibit S. aureus growth (MIC) with functional MprF versus mprF deletion mutant” value in [5] is “reduced in the presence of a functional MprF protein”. For the same molecule, the “ability of T345A to increase the MIC of daptomycin” value in test [6] (T345A in combination with D71A, 50 mg/liter CaCl2, three independent experiments (Fig. 5B)) is recorded as “not able to increase the daptomycin MIC”; in [7] (T345A in combination with R206A (so in the source), 50 mg/liter CaCl2, three independent experiments (Fig. 5B)), “not able to increase the daptomycin MIC”; in [8] (T345A in combination with R112A, 50 mg/liter CaCl2, three independent experiments (Fig. 5B)), “only slightly increased MIC”. Also, the “susceptibility after chromosomal deletion of MprF” value in test [9] was “hypersusceptibility”.
Take bacitracin: the “ability to inhibit S. aureus growth (MIC) with functional MprF versus mprF deletion mutant” value in test [5] is recorded as “reduced in the presence of a functional MprF protein”. Moreover, the “MIC of bacitracin as indicator of flippase activity, compared to strains expressing a functional MprF” value in test [6] (T345A with flippase-inactivating mutation D71A, three independent experiments (Fig. 5A)) is listed as “hypersusceptible”; in [7] (T345A with flippase-inactivating mutation E206A, three independent experiments (Fig. 5A)) it was “hypersusceptible”; in test [8] (T345A with flippase-inactivating mutation R112A, three independent experiments (Fig. 5A)), “hypersusceptible”.
As to friulimicin B, in test [10], the “ability to inhibit S. aureus growth (MIC) with functional MprF versus mprF deletion mutant” value is recorded as “reduced in the presence of a functional MprF protein”. Further, the “cross-resistance (MIC versus wild-type MprF)” value in [11] and in [12] was “cross-resistance” in each case.
Take polymyxin B: the “ability to inhibit S. aureus growth (MIC) with functional MprF versus mprF deletion mutant” value in [5] was “reduced in the presence of a functional MprF protein”.
As to vancomycin, the “ability to inhibit S. aureus growth (MIC) with functional MprF versus mprF deletion mutant” value in test [5] is reported as “reduced in the presence of a functional MprF protein”.
Regarding `Cc1onc(-c2ccccc2)c1C(=O)N[C@@H]1C(=O)N2[C@@H]1SC(C)(C)[C@@H]2C(=O)O` [oxacillin], the “ability to inhibit S. aureus growth (MIC) with functional MprF versus mprF deletion mutant” value in test [5] is listed as “not affected by MprF”.
As for “nisin (ITSISLCTPGCKTGALMGCNMKTATCHCSIHVSK; also: lantibiotic: thioether rings and dehydro residues, places not given here; UniProt P13068 24-57, looked up)”, in test [10], the “ability to inhibit S. aureus growth (MIC) with functional MprF versus mprF deletion mutant” value is recorded as “reduced in the presence of a functional MprF protein”.
For “gallidermin (IASKFLCTPGCAKTGSFNSYCC; also: lantibiotic: thioether rings and dehydro residues, places not given here; UniProt P21838 31-52, looked up)”, the “ability to inhibit S. aureus growth (MIC) with functional MprF versus mprF deletion mutant” value in [10] was “reduced in the presence of a functional MprF protein”.

As a reminder, the MIC is the smallest concentration in the dilution series that meets the test's criterion for growth inhibition.
